According to patent US9409905B2, “Antibacterial compounds and methods for use” (PTC THERAPEUTICS, INC., priority 2011, dated 2016):
≈ marks a conversion by molar mass, not a printed value.

Experiments:
[1] = tested on: Moraxella catarrhalis (M. catarrhalis) 25238; test: Antibacterial activity, MIC (Table 7); assay type: cell-based
Procedure, shortened: (§1)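 Activity was determined by microbroth dilution. MIC, in μg/mL, is the lowest drug concentration that prevents macroscopically visible growth under the test conditions.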

[2] = tested on: Escherichia coli (E. coli) BAS849; test: Antibacterial activity, microbroth dilution MIC (Table 1); assay type: cell-based; conditions: microbroth dilution, super sensitive Gram-negative E. coli BAS849, read-out: MIC, BAS849
Procedure, shortened: (§2)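 Growth inhibition by microbroth dilution. MIC = lowest μg/mL with no visible growth. Strain 25922 is the control Gram-negative; BAS849 is hypersensitive.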

[3] = tested on: Staphylococcus aureus (S. aureus) 29213; test: as above; assay type: cell-based; conditions: microbroth dilution, Gram-positive S. aureus 29213, read-out: MIC, 29213
Procedure, shortened: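 In a microbroth dilution test, the minimum inhibitory concentration was defined as the lowest compound level preventing growth seen by eye, and was given in μg/mL.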

E. coli LZ3111 = test: Antibacterial activity, MIC, quinolone resistant strain (Table 2); assay type: cell-based; conditions: Escherichia coli, LZ3111, read-out: MIC LZ3111
Procedure, shortened: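 MIC values (μg/mL) came from a microbroth dilution assay, scored as the lowest drug concentration at which no growth was visible by eye.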

A. baumannii MXX2240 = test: Antibacterial activity, MIC, resistant strain (Table 4); assay type: cell-based; conditions: Acinetobacter baumannii, MXX2240; resistant A. baumannii MMX2240, multi-drug resistant clinical isolate; read-out: MIC, MMX2240
Procedure, shortened: (§3)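 Values are MICs in μg/mL, read as the lowest compound concentration at which no growth is visible by eye. They come from a microbroth dilution method.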

K. pneumoniae MXX1232 = test: as above; assay type: cell-based; conditions: Klebsiella pneumoniae, MXX1232; resistant K. pneumoniae MMX1232, multi-drug resistant clinical isolate; read-out: MIC, MMX1232
Procedure, shortened: as §3

[4] = tested on: Neisseria meningitidis (N. meningitidis) 13090; test: Antibacterial activity, MIC (Table 8); assay type: cell-based
Procedure, shortened: as §1

[5] = tested on: Acinetobacter baumannii (A. baumannii) BAA747; test: Antibacterial activity, MIC (Table 4); assay type: cell-based; conditions: A. baumannii BAA747, read-out: MIC, BAA747
Procedure, shortened: as §3

[6] = tested on: Klebsiella pneumoniae (K. pneumoniae) 35657; test: Antibacterial activity, MIC (Table 4); assay type: cell-based; conditions: K. pneumoniae 35657, read-out: MIC, 35657
Procedure, shortened: as §3

[7] = tested on: Haemophilus influenzae (H. influenzae) 49247; test: Antibacterial activity, MIC (Table 6); assay type: cell-based
Procedure, shortened: as §1

E. coli ELZ4000 = test: Antibacterial activity, MIC, multi-drug resistant clinical isolate (Table 3); assay type: cell-based; conditions: Escherichia coli, ELZ4000, read-out: MIC ELZ4000
Procedure, shortened: (§4)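 Compounds were serially diluted in broth microdilution format and growth was scored visually; the MIC is the lowest concentration at which no macroscopically visible growth occurred, expressed in μg/mL.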

E. coli ELZ4251 = test: as above; assay type: cell-based; conditions: Escherichia coli
Procedure, shortened: as §4

[8] = tested on: Pseudomonas aeruginosa (P. aeruginosa) 27853; test: Antibacterial activity, MIC (Table 5); assay type: cell-based; conditions: P. aeruginosa 27853, read-out: MIC, 27853
Procedure, shortened: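 Values are MICs in μg/mL, read as the lowest concentration at which no growth is visible by eye. They were determined by a microbroth dilution method.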

E. coli 25922 = test: Antibacterial activity, microbroth dilution MIC (Table 1); assay type: cell-based, Escherichia coli; conditions: Escherichia coli; microbroth dilution; control Gram-negative E. coli 25922 strain; read-out: MIC, 25922
Procedure, shortened: as §2

Structure (SMILES)	MIC [1] [µg/mL]	MIC [2] [µg/mL]	MIC [3] [µg/mL]	MIC (E. coli LZ3111) [µg/mL]	MIC (A. baumannii MXX2240) [µg/mL]	MIC (K. pneumoniae MXX1232) [µg/mL]	MIC [4] [µg/mL]	MIC [5] [µg/mL]	MIC [6] [µg/mL]	MIC [7] [µg/mL]	MIC (E. coli ELZ4000) [µg/mL]	MIC (E. coli ELZ4251) [µg/mL]	MIC [8] [µg/mL]	MIC (E. coli 25922) [µg/mL]
C#CCNCc1cc2cc(-c3[nH]c(=O)c(C(=O)O)c(O)c3CC)ccc2n1C.Cl [Cpd 277, 5-ethyl-4-hydroxy-6-(1-methyl-2-((prop-2-ynylamino)methyl)-1H-indol-5-yl)-2-oxo-1,2-dihydropyridine-3-carboxylic acid hydrochloride]	< 1	< 1	1 to 3.5	1 to 3.5	12.5 to 150	12.5 to 150	< 1	1 to 3.5	1 to 3.5	< 1	12.5 to 150	3.5 to 12.5	12.5 to 150	< 1
CCc1c(-c2ccc3c(c2)cc(CN2C[C@H]4CCC[C@@H](N(C)C)[C@H]4C2)n3C)[nH]c(=O)c(C(=O)O)c1O [Cpd 279, 6-(2-(((3aR,4R,7aS)-4-(dimethylamino)-1H-isoindol-2(3H,3aH,4H,5H,6H,7H,7aH)-yl)methyl)-1-methyl-1H-indol-5-yl)-5-ethyl-4-hydroxy-2-oxo-1,2-dihydropyridine-3-carboxylic acid]	1 to 3.5 (≈ 2.03 to 7.1 µM)	< 1	3.5 to 12.5 (≈ 7.1 to 25.4 µM)	1 to 3.5 (≈ 2.03 to 7.1 µM)	12.5 to 150 (≈ 25.4 to 304 µM)	12.5 to 150 (≈ 25.4 to 304 µM)	< 1	1 to 3.5 (≈ 2.03 to 7.1 µM)	1 to 3.5 (≈ 2.03 to 7.1 µM)	1 to 3.5 (≈ 2.03 to 7.1 µM)	12.5 to 150 (≈ 25.4 to 304 µM)	12.5 to 150 (≈ 25.4 to 304 µM)	12.5 to 150 (≈ 25.4 to 304 µM)	1 to 3.5 (≈ 2.03 to 7.1 µM)
CCc1c(-c2ccc3c(c2)cc(CN2C[C@H]4CCC[C@@H](NC)[C@H]4C2)n3C)[nH]c(=O)c(C(=O)O)c1O [Cpd 282, 5-ethyl-4-hydroxy-6-(1-methyl-2-(((3aR,4R,7aS)-4-(methylamino)-1H-isoindol-2(3H,3aH,4H,5H,6H,7H,7aH)-yl)methyl)-1H-indol-5-yl)-2-oxo-1,2-dihydropyridine-3-carboxylic acid]	3.5 to 12.5 (≈ 7.31 to 26.1 µM)	< 1	12.5 to 150 (≈ 26.1 to 313 µM)	1 to 3.5 (≈ 2.09 to 7.31 µM)	12.5 to 150 (≈ 26.1 to 313 µM)	12.5 to 150 (≈ 26.1 to 313 µM)	1 to 3.5 (≈ 2.09 to 7.31 µM)	12.5 to 150 (≈ 26.1 to 313 µM)	1 to 3.5 (≈ 2.09 to 7.31 µM)	1 to 3.5 (≈ 2.09 to 7.31 µM)	12.5 to 150 (≈ 26.1 to 313 µM)	3.5 to 12.5 (≈ 7.31 to 26.1 µM)	12.5 to 150 (≈ 26.1 to 313 µM)	< 1
CCc1c(-c2ccc3c(c2)cc(CN2C[C@H]4C[C@@H](N(C)C)C[C@H]4C2)n3C)[nH]c(=O)c(C(=O)O)c1O [Cpd 285, 6-(2-(((3aR,5r,6aS)-5-(dimethylamino)hexahydrocyclopenta[c]pyrrol-2(1H)-yl)methyl)-1-methyl-1H-indol-5-yl)-5-ethyl-4-hydroxy-2-oxo-1,2-dihydropyridine-3-carboxylic acid]	1 to 3.5 (≈ 2.09 to 7.31 µM)	< 1	12.5 to 150 (≈ 26.1 to 313 µM)	1 to 3.5 (≈ 2.09 to 7.31 µM)	12.5 to 150 (≈ 26.1 to 313 µM)	12.5 to 150 (≈ 26.1 to 313 µM)	< 1	3.5 to 12.5 (≈ 7.31 to 26.1 µM)	1 to 3.5 (≈ 2.09 to 7.31 µM)	1 to 3.5 (≈ 2.09 to 7.31 µM)	12.5 to 150 (≈ 26.1 to 313 µM)	3.5 to 12.5 (≈ 7.31 to 26.1 µM)	12.5 to 150 (≈ 26.1 to 313 µM)	1 to 3.5 (≈ 2.09 to 7.31 µM)
CCc1c(-c2ccc3c(c2)cc(CN)n3C)[nH]c(=O)c(C(=O)O)c1O [Cpd 290, 6-(2-(aminomethyl)-1-methyl-1H-indol-5-yl)-5-ethyl-4-hydroxy-2-oxo-1,2-dihydropyridine-3-carboxylic acid]	1 to 3.5 (≈ 2.93 to 10.3 µM)	< 1	3.5 to 12.5 (≈ 10.3 to 36.6 µM)	1 to 3.5 (≈ 2.93 to 10.3 µM)	12.5 to 150 (≈ 36.6 to 439 µM)	12.5 to 150 (≈ 36.6 to 439 µM)	< 1	1 to 3.5 (≈ 2.93 to 10.3 µM)	3.5 to 12.5 (≈ 10.3 to 36.6 µM)	1 to 3.5 (≈ 2.93 to 10.3 µM)	3.5 to 12.5 (≈ 10.3 to 36.6 µM)	3.5 to 12.5 (≈ 10.3 to 36.6 µM)	1 to 3.5 (≈ 2.93 to 10.3 µM)	< 1
CCc1c(-c2ccc3c(c2)cc(CNCc2ccc(OC)cc2)n3C)[nH]c(=O)c(C(=O)O)c1O [Cpd 291, 5-ethyl-4-hydroxy-6-(2-((4-methoxybenzylamino)methyl)-1-methyl-1H-indol-5-yl)-2-oxo-1,2-dihydropyridine-3-carboxylic acid]	< 1	< 1	3.5 to 12.5 (≈ 7.58 to 27.1 µM)	1 to 3.5 (≈ 2.17 to 7.58 µM)	1 to 3.5 (≈ 2.17 to 7.58 µM)	12.5 to 150 (≈ 27.1 to 325 µM)	< 1	1 to 3.5 (≈ 2.17 to 7.58 µM)	3.5 to 12.5 (≈ 7.58 to 27.1 µM)	< 1	12.5 to 150 (≈ 27.1 to 325 µM)	12.5 to 150 (≈ 27.1 to 325 µM)	12.5 to 150 (≈ 27.1 to 325 µM)	< 1
